In test [1] the target is T1, T1R1/T1R3 receptor (Felis catus, UniProt E3UMS2). Briefly: Activation of T1R1/T1R3 receptor by transmembrane compounds and nucleotide derivatives, conducted as in Examples 1, 2 and 5 (Example 7). Format: cell-based, cat. The settings on record: for EC50: read-out: T1R1/T1R3 EC50; for Max resp % of IMP +Alanine (20 mM): hek293 cells; for Activity: modulation of T1R1/T1R3. From the text: Methods: HEK293 cells that stably express T1R3 and inducibly express T1R1 were exposed to nucleotide derivatives alone to activate the umami receptor. Activation of the T1R1/T1R3 receptor was detected by a change in intracellular calcium levels using a calcium sensitive fluorescent dye. Cells that express T1R3 but not T1R1 were used as a control. A FLIPR® Tetra or a FlexStation® 3 was used for data capture.
Methods: HEK293 cells that stably express T1R3 and inducibly express T1R1 were exposed to nucleotide derivatives alone or in combination with one or more amino acids and/or one or more nucleotides to activate the umami receptor. Activation of the T1R1/T1R3 receptor was detected by a change in intracellular calcium levels using a calcium sensitive fluorescent dye and/or a luminescent reporter system. Cells that express T1R3 but not T1R1 were used as a control. A FLIPR® Tetra or a FlexStation® 3 was used for data capture.
(§1) Methods: HEK293 cells that stably express T1R3 and inducibly express T1R1 were exposed to transmembrane compounds alone or in combination with one or more amino acids and/or one or more nucleotides to activate the umami receptor. Activation of the T1R1/T1R3 receptor was detected by a change in intracellular calcium levels using a calcium sensitive fluorescent dye. Cells that express T1R3 but not T1R1 were used as a control. A FLIPR® Tetra or a FlexStation® 3 was used for data capture.
(§2) In each experiment, serial dilutions of up to 10 mM of the transmembrane compound were added to the T1R1/T1R3-expressing cells.

For test [2], the target named is T1, T1R1/T1R3 receptor. Nature of the test: Activation of T1R1/T1R3 receptor by transmembrane compounds alone or with alanine, IMP, GMP, phenylalanine; HEK293 cells, calcium fluorescence (Example 5). The class given is cell-based, cat. The note with it: for Max resp % of IMP +Alanine (20 mM): relative to IMP; for Thres +Alanine (20 mM) / Thres +IMP (0.2 mM): threshold concentration; for Max resp % of Ala +IMP (0.2 mM): relative to Ala; for Activity: Table 18, all transmembrane compounds tested, active / N/A (not active).
Description: as §1, §2

The record followed here is US11185100B2 (priority 2014, dated 2021).

Molecules are shown by their SMILES. Like-named read-outs stand apart in the source and are kept apart here. Where only a bound is given, the exact number is not on record here.

For `CC(C)CC(NC(=O)c1ccccc1)C(N)=O` (racemic), in test [1], the “Max resp ΔF/F +Alanine (20 mM)” value was 0.8600 ΔF/F, the “Thres +Alanine (20 mM)” value came to 0.3 mM, the “Max resp % of Ala +IMP (0.2 mM)” value is recorded as 204.5 % of Ala and the “Max resp ΔF/F +IMP (0.2 mM)” value was 1.5900 ΔF/F. Further, in test [1], the “Thres +IMP (0.2 mM)” value is on record as 0.1 mM, the “Max resp % of IMP +Alanine (20 mM)” value was 125.5 % of IMP, the outcome was active and the EC50 is greater than 1000 µM. Moreover, the EC50 in test [1] (+0.2 mM IMP) is 470 ± 70 µM. Also, the EC50 in test [1] (alone in buffer) was greater than 600 µM.

Turning to `O=C(O)C1CCCCC1C(=O)Nc1cc(Cl)cc(Cl)c1` (stereo not drawn) [2-((3,5-dichlorophenyl)carbamoyl)cyclohexanecarboxylic acid], in test [1], the “Max resp ΔF/F +Alanine (20 mM)” value is 1.1200 ΔF/F, the “Thres +Alanine (20 mM)” value is given as 0.1 mM, the “Max resp % of Ala +IMP (0.2 mM)” value was 157.9 % of Ala and the “Max resp ΔF/F +IMP (0.2 mM)” value is recorded as 1.2275 ΔF/F. In addition, in test [1], the “Thres +IMP (0.2 mM)” value was 0.03 mM, the “Max resp % of IMP +Alanine (20 mM)” value is reported as 163.5 % of IMP and the outcome was active.

`Nc1ccccc1C(=O)NCCc1ccccc1` [2-amino-N-phenethylbenzamide]: in test [1], the “Max resp ΔF/F +Alanine (20 mM)” value is recorded as 0.6400 ΔF/F, the “Thres +Alanine (20 mM)” value was determined as 0.3 mM, the “Max resp % of Ala +IMP (0.2 mM)” value is 194.5 % of Ala and the “Max resp ΔF/F +IMP (0.2 mM)” value is listed as 1.5125 ΔF/F. Further, in test [1], the “Thres +IMP (0.2 mM)” value turned out to be 0.01 mM, the “Max resp % of IMP +Alanine (20 mM)” value is 93.4 % of IMP and the result was active.

For `CC(=O)Nc1ccc(C(=O)Nc2cc(-c3ccccc3)nn2CCO)cc1` [4-acetamido-N-(1-(2-hydroxyethyl)-3-phenyl-1H-pyrazol-5-yl)benzamide], in test [1], the “Max resp ΔF/F +Alanine (20 mM)” value is reported as 0.0125 ΔF/F, the “Max resp % of Ala +IMP (0.2 mM)” value is 58.8 % of Ala, the “Max resp ΔF/F +IMP (0.2 mM)” value is reported as 0.4575 ΔF/F and the “Max resp % of IMP +Alanine (20 mM)” value is given as 1.8 % of IMP. Also, the outcome in test [1] was active.

For the molecule `CCCC(C)NC(=O)/C=C/c1ccc(OC)c(OC)c1` (stereo not drawn) [(E)-3-(3,4-dimethoxyphenyl)-N-(pentan-2-yl)acrylamide], in test [2], the “Max resp % of IMP +Alanine (20 mM)” value was 35.2%, the “Thres +Alanine (20 mM)” value was determined as 1 mM, the “Max resp ΔF/F +IMP (0.2 mM)” value is 1.07 ΔF/F and the “Max resp % of Ala +IMP (0.2 mM)” value worked out at 86.9%. Besides, in test [2], the “Thres +IMP (0.2 mM)” value worked out at 0.55 mM and the result was active.

In the case of `COc1ccc(/C=C/C(=O)NC2CCCCC2C)cc1` (stereo not drawn) [(E)-3-(4-methoxyphenyl)-N-(2-methylcyclohexyl) acrylamide], in test [2], the “+Alanine (20 mM) Max resp % of IMP” value is recorded as 63.2 % of IMP, the “+Alanine (20 mM) Max resp ΔF/F” value is given as 0.785 ΔF/F, the “+Alanine (20 mM) Thres” value is 3 mM and the “Max resp % of IMP +Alanine (20 mM)” value is 63.2%. For the same molecule, in test [2], the “Thres +Alanine (20 mM)” value worked out at 3 mM, the “+IMP (0.2 mM) Max resp % of Ala” value is recorded as 144.0 % of Ala, the “Max resp ΔF/F +IMP (0.2 mM)” value is 1.7725 ΔF/F and the “Max resp % of Ala +IMP (0.2 mM)” value is 144.0%. Moreover, in test [2], the “Thres +IMP (0.2 mM)” value stood at 0.3 mM and the result was active.

Regarding `CCC(CC)NC(=O)/C=C/c1ccc(OC)cc1` [(E)-3-(4-methoxyphenyl)-N-(pentan-3-yl)acrylamide], in test [2], the “+Alanine (20 mM) Max resp % of IMP” value is 64.1 % of IMP, the “+Alanine (20 mM) Max resp ΔF/F” value is listed as 0.7 ΔF/F, the “+Alanine (20 mM) Thres” value is reported as 0.148 mM and the “Max resp % of IMP +Alanine (20 mM)” value turned out to be 64.1%. Also, in test [2], the “Thres +Alanine (20 mM)” value is listed as 0.148 mM, the “+IMP (0.2 mM) Max resp % of Ala” value was 171.7 % of Ala, the “Max resp ΔF/F +IMP (0.2 mM)” value is 1.443 ΔF/F and the “Max resp % of Ala +IMP (0.2 mM)” value is listed as 171.7%. Further, in test [2], the “Thres +IMP (0.2 mM)” value was 0.0375 mM and the outcome was active.

Turning to `COC(=O)C(NC(=O)/C=C/c1cccs1)C(C)C` (stereo not drawn) [(E)-methyl 3-methyl-2-(3-(thiophen-2-yl)acrylamido)butanoate], in test [2], the “+Alanine (20 mM) Max resp % of IMP” value is recorded as 9.5 % of IMP, the “+Alanine (20 mM) Max resp ΔF/F” value was 0.1175 ΔF/F, the “+Alanine (20 mM) Thres” value is recorded as 10 mM and the “Max resp % of IMP +Alanine (20 mM)” value is 9.5%. For the same molecule, in test [2], the “Thres +Alanine (20 mM)” value came to 10 mM, the “+IMP (0.2 mM) Max resp % of Ala” value was 59.9 % of Ala, the “Max resp ΔF/F +IMP (0.2 mM)” value was 0.7375 ΔF/F and the “Max resp % of Ala +IMP (0.2 mM)” value is 59.9%. Besides, in test [2], the “Thres +IMP (0.2 mM)” value was determined as 1 mM and the result was active.

For the molecule `O=C(NCCc1ccccc1)C(=O)NCc1cccnc1` [N1-phenethyl-N2-(pyridin-3-ylmethyl)oxalamide; N-(2-phenylethyl)-N′-(pyridin-3-ylmethyl)ethanediamide], in test [2], the “+Alanine (20 mM) Max resp % of IMP” value was 30.2 % of IMP, the “+Alanine (20 mM) Max resp ΔF/F” value is listed as 0.3750 ΔF/F, the “+Alanine (20 mM) Thres” value was determined as 1 mM and the “+IMP (0.2 mM) Max resp % of Ala” value was 61.9 % of Ala.

As for `O=C(NCCc1ccccc1)C(=O)NCc1cccnc1` [N1-phenethyl-N2-(pyridin-3-ylmethyl)oxalamide], in test [2], the “Max resp % of IMP +Alanine (20 mM)” value was found to be 30.2%, the “Thres +Alanine (20 mM)” value is recorded as 1 mM, the “Max resp ΔF/F +IMP (0.2 mM)” value is 0.7625 ΔF/F and the “Max resp % of Ala +IMP (0.2 mM)” value was 61.9%. In addition, in test [2], the “Thres +IMP (0.2 mM)” value is given as 0.1 mM and the outcome was active.

As to `CC1CCCC(NC(=O)c2ccc3c(c2)OCO3)C1C` (stereo not drawn) [N-(2,3-dimethylcyclohexyl) benzo[d][1,3]dioxole-5-carboxamide], in test [2], the “+Alanine (20 mM) Max resp % of IMP” value is 18.1 % of IMP, the “+Alanine (20 mM) Max resp ΔF/F” value is given as 0.225 ΔF/F, the “+Alanine (20 mM) Thres” value is 3 mM and the “Max resp % of IMP +Alanine (20 mM)” value is 18.1%. Moreover, in test [2], the “Thres +Alanine (20 mM)” value amounted to 3 mM, the “+IMP (0.2 mM) Max resp % of Ala” value is on record as 95.4 % of Ala, the “Max resp ΔF/F +IMP (0.2 mM)” value was 1.175 ΔF/F and the “Max resp % of Ala +IMP (0.2 mM)” value is 95.4%. In test [2], the “Thres +IMP (0.2 mM)” value was 0.275 mM and the outcome was active.

With `COc1cc(C(=O)NC(C(N)=O)c2ccccc2)cc(Cl)c1OC` (stereo not drawn) [N-(2-amino-2-oxo-1-phenylethyl)-3-chloro-4,5-dimethoxybenzamide], in test [2], the “+IMP (0.2 mM) Max resp % of Ala” value is 49.4 % of Ala, the “Max resp ΔF/F +IMP (0.2 mM)” value is listed as 0.415 ΔF/F, the “Max resp % of Ala +IMP (0.2 mM)” value is listed as 49.4% and the “Thres +IMP (0.2 mM)” value is on record as 0.17 mM. Also, in test [2], the outcome was active and the “activation of T1R1/T1R3 by the transmembrane compound alone (in words)” value was “failed to activate”.

Take `CCCC(CCC)C(=O)Nc1ccc2c(c1)OCO2` [N-(benzo[d][1,3]dioxol-5-yl)-2-propylpentanamide]: in test [2], the “+IMP (0.2 mM) Max resp % of Ala” value was 108.0 % of Ala, the “Max resp ΔF/F +IMP (0.2 mM)” value is given as 0.908 ΔF/F, the “Max resp % of Ala +IMP (0.2 mM)” value amounted to 108.0% and the “Thres +IMP (0.2 mM)” value was determined as 0.0675 mM. Also, in test [2], the result was active and the “activation of T1R1/T1R3 by the transmembrane compound alone (in words)” value is “function as an agonist”.

As for `CCC(CC)NC(=O)c1ccc2c(c1)OCCO2` [N-(pentan-3-yl)-2,3-dihydrobenzo[b][1,4]dioxine-6-carboxamide], in test [2], the “+Alanine (20 mM) Max resp % of IMP” value was 25.2 % of IMP, the “+Alanine (20 mM) Max resp ΔF/F” value is 0.3125 ΔF/F, the “+Alanine (20 mM) Thres” value was 0.3 mM and the “Max resp % of IMP +Alanine (20 mM)” value worked out at 25.2%. For the same molecule, in test [2], the “Thres +Alanine (20 mM)” value was 0.3 mM, the “+IMP (0.2 mM) Max resp % of Ala” value was 70.9 % of Ala, the “Max resp ΔF/F +IMP (0.2 mM)” value is 0.8725 ΔF/F and the “Max resp % of Ala +IMP (0.2 mM)” value was 70.9%. In test [2], the “Thres +IMP (0.2 mM)” value is reported as 0.075 mM and the outcome was active.

On to `CCOC(=O)C(NC(=O)c1ccc2c(c1)OCO2)C(C)C` (stereo not drawn) [ethyl 2-(benzo[d][1,3]dioxole-5-carboxamido)-3-methylbutanoate], for which, in test [2], the “+Alanine (20 mM) Max resp % of IMP” value is listed as 25.6 % of IMP, the “+Alanine (20 mM) Max resp ΔF/F” value was 0.3175 ΔF/F, the “+Alanine (20 mM) Thres” value was 10 mM and the “Max resp % of IMP +Alanine (20 mM)” value came to 25.6%. For the same molecule, in test [2], the “Thres +Alanine (20 mM)” value was found to be 10 mM, the “+IMP (0.2 mM) Max resp % of Ala” value is listed as 52.8 % of Ala, the “Max resp ΔF/F +IMP (0.2 mM)” value was 0.65 ΔF/F and the “Max resp % of Ala +IMP (0.2 mM)” value worked out at 52.8%. Further, in test [2], the “Thres +IMP (0.2 mM)” value is 1 mM and the result was active.
